pIC50: −log10 of the molar value.
What was measured:
[1] = pharmacokinetic properties in mouse after single intravenous and oral administration; type: in vivo; details: PK data in mouse; for clearance / half-life / Cmax / Vd: female, plasma, 0.2 mg/kg; for Cmax: dose-normalized to 1 mg/kg; for Vd: read-out: Vss
Description: The objective of the study was to obtain information on the pharmacokinetic properties of the compounds of the present invention in female Wistar rats/mice following single intravenous and oral administration.
Female Wistar rats/mice (n=6) received either a single intravenous (bolus) injection or an oral administration (by gavage) of the tested compound.
The concentrations of the compounds in plasma, feces were quantified using an UPLC method with tandem mass spectrometric detection (LC-MS/MS) previously developed at the ‘Institute of Drug Metabolism and Pharmacokinetics’. The LC-MS/MS system consisted of a Waters Acquity UPLC coupled to an AB Sciex mass spectrometer API 5500 Q-trap. […] The detection of the compounds was performed using multiple reaction monitoring in the positive ionization mode. Plasma samples were spiked with internal standard (20 μl) and the analyte was extracted from the matrix using tertiary-butyl methyl ether (tBME). The organic phase was evaporated to dryness under a stream of nitrogen. The residue was dissolved in acetonitrile/0.1% formic acid for LC-MS/MS analysis. Feces samples were homogenized with 4-times their volume of an ethanol/water mixture (4:1, v/v). Aliquots of the aqueous-ethanolic extracts were spiked with internal standard, diluted with acetonitrile/water (1:1, v/v) and directly injected into the LC-MS/MS system.
Pharmacokinetic parameters Cmax and tmax were taken from the observed data. […] AUC values were calculated by non-compartmental analysis using the linear up/log down method. Numerical data for mean plasma concentrations and derived pharmacokinetic parameters were rounded to 3 significant digits for presentation.

human A3 receptor = molecular target: T1, human A3 receptor (Homo sapiens, UniProt P0DMS8); assay: functional cAMP (HTRF) assay, recombinant CHO cells expressing human A3 receptor, forskolin, agonist IB-MECA; type: cell-based
T1 construct: expressed in transfected cells; host or cells: CHO
T1 sequence (P0DMS8 1-318): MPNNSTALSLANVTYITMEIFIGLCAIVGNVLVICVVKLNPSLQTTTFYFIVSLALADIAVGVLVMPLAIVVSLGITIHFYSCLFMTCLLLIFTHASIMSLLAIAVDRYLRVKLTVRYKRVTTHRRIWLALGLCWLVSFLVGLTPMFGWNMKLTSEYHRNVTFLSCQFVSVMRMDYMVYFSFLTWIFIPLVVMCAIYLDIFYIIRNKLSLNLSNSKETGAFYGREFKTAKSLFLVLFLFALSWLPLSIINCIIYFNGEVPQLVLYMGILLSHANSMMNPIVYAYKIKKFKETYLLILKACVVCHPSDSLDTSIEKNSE
How it was run: (§1)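 CHO cells (hA1 or hA3) + forskolin + test cpd + agonist (CPA/A1, IB-MECA/A3), 30 min; HTRF cAMP readout; normalized vs inhibitor and DMSO controls, curve fit.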

human A1 receptor = molecular target: T2, human A1 receptor (Homo sapiens, UniProt P30542); assay: functional cAMP (HTRF) assay, recombinant CHO cells expressing human A1 receptor, forskolin, agonist CPA; type: cell-based
T2 construct: expressed in transfected cells; host or cells: CHO
T2 sequence (P30542 1-326): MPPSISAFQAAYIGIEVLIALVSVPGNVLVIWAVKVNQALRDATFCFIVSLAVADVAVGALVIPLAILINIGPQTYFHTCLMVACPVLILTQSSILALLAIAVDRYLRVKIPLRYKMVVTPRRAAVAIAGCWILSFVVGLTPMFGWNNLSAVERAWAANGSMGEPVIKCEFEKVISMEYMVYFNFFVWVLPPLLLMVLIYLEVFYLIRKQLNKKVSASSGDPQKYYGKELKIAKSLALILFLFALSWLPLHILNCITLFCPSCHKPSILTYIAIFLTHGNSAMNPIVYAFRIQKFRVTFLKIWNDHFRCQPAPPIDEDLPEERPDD
How it was run: as §1

human A2A receptor = molecular target: T3, human A2A receptor (Homo sapiens, UniProt P29274); assay: functional cAMP (HTRF) assay, recombinant HEK293 cells expressing human A2A receptor, agonist NECA; type: cell-based
T3 construct: expressed in transfected cells; host or cells: HEK293

A2B receptors = molecular target: T4, A2B receptors (Homo sapiens, UniProt P29275); assay: functional cAMP (HTRF) assay, recombinant HEK293 cells expressing human A2B receptor, agonist NECA; type: cell-based; parameters: expressed in transfected cells; host or cells: HEK293
T4 sequence (P29275 1-332): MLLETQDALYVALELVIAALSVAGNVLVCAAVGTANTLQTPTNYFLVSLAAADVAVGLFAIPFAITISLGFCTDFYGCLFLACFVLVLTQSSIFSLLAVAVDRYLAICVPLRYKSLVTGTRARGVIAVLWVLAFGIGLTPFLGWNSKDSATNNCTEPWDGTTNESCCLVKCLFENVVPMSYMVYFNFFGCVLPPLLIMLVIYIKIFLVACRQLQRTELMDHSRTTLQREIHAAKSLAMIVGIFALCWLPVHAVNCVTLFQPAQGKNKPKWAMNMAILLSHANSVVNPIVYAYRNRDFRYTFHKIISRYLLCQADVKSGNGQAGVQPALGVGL

T3 sequence (P29274 whole entry): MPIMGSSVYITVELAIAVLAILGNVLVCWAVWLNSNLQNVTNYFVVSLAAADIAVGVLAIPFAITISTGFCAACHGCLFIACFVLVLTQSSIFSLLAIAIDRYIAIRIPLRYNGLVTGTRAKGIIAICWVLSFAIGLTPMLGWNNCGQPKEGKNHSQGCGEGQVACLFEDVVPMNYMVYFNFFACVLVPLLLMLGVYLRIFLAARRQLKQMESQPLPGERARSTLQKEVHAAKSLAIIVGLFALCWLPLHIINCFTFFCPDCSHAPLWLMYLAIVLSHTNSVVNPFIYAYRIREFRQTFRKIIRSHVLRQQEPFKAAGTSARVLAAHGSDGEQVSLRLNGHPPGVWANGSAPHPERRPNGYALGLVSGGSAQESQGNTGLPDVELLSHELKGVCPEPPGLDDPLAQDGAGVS

Feces iv ([1]; @0.08 (dose, unit not given))	clearance [1] [mL/min/kg]	half-life [1] [min]	Cmax [1] [ng/mL]	Vd [1] [L/kg]	pIC50 (human A3 receptor)	pIC50 (human A1 receptor)	pIC50 (human A2A receptor)	Feces iv ([1]; @0.2 (dose, unit not given))	pIC50 (A2B receptors)	Compound
38@0.08%	12.7	50.3	2650	0.508						COc1ccc(N2CCOCC2)c2nc(NC(=O)N3CCC(C)(O)CC3)[nH]c12 [compound 21, 4-hydroxy-N-(7-methoxy-4-morpholino-1H-benzimidazol-2-yl)-4-methyl-piperidine-1-carboxamide]
	12.5	58	1050	1.01	< 6.00	< 6.00	> 8.00	29@0.2%	> 7.00	COc1ccc(C2CCOCC2)c2nc(NC(=O)c3ccc(Cn4ccnc4)cc3)[nH]c12 [compound 97, 4-[(1H-imidazol-1-yl)methyl]-N-[7-methoxy-4-(oxan-4-yl)-1H-1,3-benzodiazol-2-yl]benzamide]
	12.7	40.1	2640	0.402	< 6.00	< 6.00	> 8.00	2.5@0.2%	> 6.00	COc1ccc(C2CCOCC2)c2nc(NC(=O)c3ccc(C(=O)N(C)C)cc3)[nH]c12 [compound 133, N4-[7-methoxy-4-(oxan-4-yl)-1H-1,3-benzodiazol-2-yl]-N1,N1-dimethylbenzene-1,4-dicarboxamide]
	28.5	32.3	1.9	1.06	< 6.00	< 6.00	> 8.00		> 6.00	COc1ccc(C2CCOCC2)c2nc(NC(=O)c3ccc(CN4CCCC4=O)cc3)[nH]c12 [compound 138, N-[7-methoxy-4-(oxan-4-yl)-1H-1,3-benzodiazol-2-yl]-4-[(2-oxopyrrolidin-1-yl)methyl]benzamide]
	10.3	103	733	1.54				11@0.2%		COc1ccc(N2CCOCC2)c2nc(NC(=O)c3ccnc(N4CCOCC4)c3)[nH]c12 [compound 23, N-(7-Methoxy-4-morpholin-4-yl-1H-benzoimidazol-2-yl)-2-morpholin-4-yl-isonicotinamide]
	5.55	69	2100	0.522	< 6.00	< 6.00	> 8.00	5.6@0.2%	< 6.00	COc1ccc(N2CCOCC2)c2nc(NC(=O)c3cnn(C)c3)[nH]c12 [compound 136, N-[7-methoxy-4-(morpholin-4-yl)-1H-1,3-benzodiazol-2-yl]-1-methyl-1H-pyrazole-4-carboxamide]
	31.7	37.3	718	1.54	> 6.00	< 6.00	> 8.00	34@0.2%	> 6.00	COc1ccc(-c2cnn(C)c2)c2nc(NC(=O)c3ccnc(N4CC[C@@](C)(O)C4)c3)[nH]c12 [compound 107, 2-[(3R)-3-hydroxy-3-methylpyrrolidin-1-yl]-N-[7-methoxy-4-(1-methyl-1H-pyrazol-4-yl)-1H-1,3-benzodiazol-2-yl]pyridine-4-carboxamide]
					> 6.00	< 6.00	> 7.00		> 7.00	COCCn1cc(C(=O)Nc2nc3c(-c4cccc5c4CCN5)ccc(OC)c3[nH]2)cn1 [compound 283, N-[4-(2,3-dihydro-1H-indol-4-yl)-7-methoxy-1H-1,3-benzodiazol-2-yl]-1-(2-methoxyethyl)-1H-pyrazole-4-carboxamide]
					> 6.00	< 6.00	> 8.00		< 6.00	COc1ccc(-c2cnn(C)c2)c2nc(NC(=O)c3ccc(CN4CCN(C)CC4)cc3)[nH]c12 [compound 168, N-[7-methoxy-4-(1-methyl-1H-pyrazol-4-yl)-1H-1,3-benzodiazol-2-yl]-4-[(4-methylpiperazin-1-yl)methyl]benzamide]
	11.4	42.6	1820	0.568	> 6.00	> 6.00	> 8.00	27@0.2%	> 6.00	COc1ccc(-c2ccccc2)c2nc(NC(=O)N3CCC(C)(O)CC3)[nH]c12 [compound 12, 4-Hydroxy-4-methyl-piperidine-1-carboxylic acid (7-methoxy-4-phenyl-1H-benzoimidazol-2-yl)-amide]
					< 6.00	< 6.00	> 7.00		> 6.00	COc1ccc(-c2ccncc2)c2nc(NC(=O)N3CCC4(COC4)C3)[nH]c12 [compound 85, N-[7-methoxy-4-(pyridin-4-yl)-1H-1,3-benzodiazol-2-yl]-2-oxa-6-azaspiro[3.4]octane-6-carboxamide]
					< 6.00	< 6.00	> 8.00		< 6.00	C#CCC1(O)CCN(C(=O)Nc2nc3c(C4CCOCC4)ccc(OC)c3[nH]2)CC1 [compound 102, 4-hydroxy-N-[7-methoxy-4-(oxan-4-yl)-1H-1,3-benzodiazol-2-yl]-4-(prop-2-yn-1-yl)piperidine-1-carboxamide]
					< 6.00	> 6.00	> 7.00		> 7.00	COc1ccc(-c2ccccc2)c2nc(NC(=O)N3CCC(F)(F)CC3)[nH]c12 [compound 287, 4,4-difluoro-N-(7-methoxy-4-phenyl-1H-1,3-benzodiazol-2-yl)piperidine-1-carboxamide]
					< 6.00	< 6.00	> 8.00		> 7.00	COc1ccc(-c2cccnc2)c2[nH]c(NC(=O)c3c[nH]cn3)nc12 [compound 268, N-[4-methoxy-7-(pyridin-3-yl)-1H-1,3-benzodiazol-2-yl]-1H-imidazole-4-carboxamide]

Compound	Feces iv ([1]; @0.08 (dose, unit not given))	clearance [1] [mL/min/kg]	half-life [1] [min]	Cmax [1] [ng/mL]	Vd [1] [L/kg]	pIC50 (human A3 receptor)	pIC50 (human A1 receptor)	pIC50 (human A2A receptor)	Feces iv ([1]; @0.2 (dose, unit not given))	pIC50 (A2B receptors)
COc1ccc(-c2cnn(C)c2)c2nc(NC(=O)N3CC[C@@]4(CCOC4)C3)[nH]c12 [compound 116, (5R)-N-[7-methoxy-4-(1-methyl-1H-pyrazol-4-yl)-1H-1,3-benzodiazol-2-yl]-2-oxa-7-azaspiro[4.4]nonane-7-carboxamide]		12.3	58	1130	0.917				16.9@0.2%	
COc1ccc(-c2cnn(C)c2)c2nc(NC(=O)N3CCC(C)(O)CC3)[nH]c12 [compound 22, 4-Hydroxy-4-methyl-piperidine-1-carboxylic acid [7-methoxy-4-(1-methyl-1H-pyrazol-4-yl)-1H-benzoimidazol-2-yl]-amide]		19.5	52	1320	1.02				46@0.2%	
COc1ccc(-c2cnn(C)c2)c2nc(NC(=O)N3CC[C@]4(CCOC4)C3)[nH]c12 [compound 115, (5S)-N-[7-methoxy-4-(1-methyl-1H-pyrazol-4-yl)-1H-1,3-benzodiazol-2-yl]-2-oxa-7-azaspiro[4.4]nonane-7-carboxamide]		5.4	59.3	2450	0.425				8.6@0.2%	
